System: Energy system protein genes
Assay: DNA chip mRNA expression in yeast, energy system protein genes (Table 4)
Type: cell-based, Saccharomyces cerevisiae S288C
In short: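 Ratios compare mRNA levels in stressed and control S. cerevisiae. Each toxicant was applied for two hours to log-phase cultures at 25° C. at a sub-lethal, growth-inhibiting level; fluorescent cDNA (Cy3- or Cy5-dUTP) was hybridized to a genome-wide yeast chip for over 12 h at 65° C.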

COc1cc(CNC(=O)CCCCC=CC(C)C)ccc1O [(12), 8-methyl-N-vanillyl-6-nonenamide]
The level of expressed mRNA in the presence of chemical substance/The level of expressed mRNA in the absence of chemical substance (yeast gene YAL060W): 0.8 | The level of expressed mRNA in the presence of chemical substance/The level of expressed mRNA in the absence of chemical substance (yeast gene YBL058W, cells incubated two hours with the chemical substance): 0.8 | The level of expressed mRNA in the presence of chemical substance/The level of expressed mRNA in the absence of chemical substance (yeast gene YBL099W, cells incubated two hours with the chemical substance): 1.0 | The level of expressed mRNA in the presence of chemical substance/The level of expressed mRNA in the absence of chemical substance (yeast gene YBR001C, cells incubated two hours with the chemical substance): 1.0 | The level of expressed mRNA in the presence of chemical substance/The level of expressed mRNA in the absence of chemical substance (yeast gene YBR185C, cells incubated two hours with the chemical substance): 0.7 | The level of expressed mRNA in the presence of chemical substance/The level of expressed mRNA in the absence of chemical substance (yeast gene YBR221C, cells incubated two hours with the chemical substance): 1.3 | The level of expressed mRNA in the presence of chemical substance/The level of expressed mRNA in the absence of chemical substance (yeast gene YCL040W): 2.3 | The level of expressed mRNA in the presence of chemical substance/The level of expressed mRNA in the absence of chemical substance (yeast gene YCR005C): 0.5 | The level of expressed mRNA in the presence of chemical substance/The level of expressed mRNA in the absence of chemical substance (yeast gene YCR012W): 1.2 | The level of expressed mRNA in the presence of chemical substance/The level of expressed mRNA in the absence of chemical substance (yeast gene YCR046C, cells incubated two hours with the chemical substance): 1.1 | The level of expressed mRNA in the presence of chemical substance/The level of expressed mRNA in the absence of chemical substance (yeast gene YCR105W, cells incubated two hours with the chemical substance): 0.9 | The level of expressed mRNA in the presence of chemical substance/The level of expressed mRNA in the absence of chemical substance (yeast gene YDL021W): 2.4 | The level of expressed mRNA in the presence of chemical substance/The level of expressed mRNA in the absence of chemical substance (yeast gene YDL067C, cells incubated two hours with the chemical substance): 1.0 | The level of expressed mRNA in the presence of chemical substance/The level of expressed mRNA in the absence of chemical substance (yeast gene YDL078C, cells incubated two hours with the chemical substance): 0.8 | The level of expressed mRNA in the presence of chemical substance/The level of expressed mRNA in the absence of chemical substance (yeast gene YDL107W, cells incubated two hours with the chemical substance): 1.0 | The level of expressed mRNA in the presence of chemical substance/The level of expressed mRNA in the absence of chemical substance (yeast gene YDL174C): 2.8 | The level of expressed mRNA in the presence of chemical substance/The level of expressed mRNA in the absence of chemical substance (yeast gene YDL181W, cells incubated two hours with the chemical substance): 0.9 | The level of expressed mRNA in the presence of chemical substance/The level of expressed mRNA in the absence of chemical substance (yeast gene YDR001C): 1.1 | The level of expressed mRNA in the presence of chemical substance/The level of expressed mRNA in the absence of chemical substance (yeast gene YDR050C, cells incubated two hours with the chemical substance): 1.4 | The level of expressed mRNA in the presence of chemical substance/The level of expressed mRNA in the absence of chemical substance (yeast gene YDR079W, cells incubated two hours with the chemical substance): 1.1 | The level of expressed mRNA in the presence of chemical substance/The level of expressed mRNA in the absence of chemical substance (yeast gene YDR178W, cells incubated two hours with the chemical substance): 1.3 | The level of expressed mRNA in the presence of chemical substance/The level of expressed mRNA in the absence of chemical substance (yeast gene YDR231C): 1.1 | The level of expressed mRNA in the presence of chemical substance/The level of expressed mRNA in the absence of chemical substance (yeast gene YDR298C, cells incubated two hours with the chemical substance): 1.1 | The level of expressed mRNA in the presence of chemical substance/The level of expressed mRNA in the absence of chemical substance (yeast gene YDR377W, cells incubated two hours with the chemical substance): 0.9 | The level of expressed mRNA in the presence of chemical substance/The level of expressed mRNA in the absence of chemical substance (yeast gene YDR529C, cells incubated two hours with the chemical substance): 0.6 | The level of expressed mRNA in the presence of chemical substance/The level of expressed mRNA in the absence of chemical substance (yeast gene YEL024W, cells incubated two hours with the chemical substance): 0.8 | The level of expressed mRNA in the presence of chemical substance/The level of expressed mRNA in the absence of chemical substance (yeast gene YEL039C, cells incubated two hours with the chemical substance): 0.6 | The level of expressed mRNA in the presence of chemical substance/The level of expressed mRNA in the absence of chemical substance (yeast gene YER178W): 1.3 | The level of expressed mRNA in the presence of chemical substance/The level of expressed mRNA in the absence of chemical substance (yeast gene YFL057C): 1.0 | The level of expressed mRNA in the presence of chemical substance/The level of expressed mRNA in the absence of chemical substance (yeast gene YFR053C): 1.7 | The level of expressed mRNA in the presence of chemical substance/The level of expressed mRNA in the absence of chemical substance (yeast gene YGL018C, cells incubated two hours with the chemical substance): 1.0 | The level of expressed mRNA in the presence of chemical substance/The level of expressed mRNA in the absence of chemical substance (yeast gene YGL062W): 1.6 | The level of expressed mRNA in the presence of chemical substance/The level of expressed mRNA in the absence of chemical substance (yeast gene YGL187C, cells incubated two hours with the chemical substance): 0.8 | The level of expressed mRNA in the presence of chemical substance/The level of expressed mRNA in the absence of chemical substance (yeast gene YGL191W, cells incubated two hours with the chemical substance): 0.9 | The level of expressed mRNA in the presence of chemical substance/The level of expressed mRNA in the absence of chemical substance (yeast gene YGL205W, cells incubated two hours with the chemical substance): 1.1 | The level of expressed mRNA in the presence of chemical substance/The level of expressed mRNA in the absence of chemical substance (yeast gene YGL256W, cells incubated two hours with the chemical substance): 0.9 | The level of expressed mRNA in the presence of chemical substance/The level of expressed mRNA in the absence of chemical substance (yeast gene YGR043C): 3.3 | The level of expressed mRNA in the presence of chemical substance/The level of expressed mRNA in the absence of chemical substance (yeast gene YGR062C, cells incubated two hours with the chemical substance, 25° C., YPD medium): 1.0 | The level of expressed mRNA in the presence of chemical substance/The level of expressed mRNA in the absence of chemical substance (yeast gene YGR087C, cells incubated two hours with the chemical substance): 1.2 | The level of expressed mRNA in the presence of chemical substance/The level of expressed mRNA in the absence of chemical substance (yeast gene YGR174C, cells incubated two hours with the chemical substance): 0.9 | The level of expressed mRNA in the presence of chemical substance/The level of expressed mRNA in the absence of chemical substance (yeast gene YGR192C): 2.2 | The level of expressed mRNA in the presence of chemical substance/The level of expressed mRNA in the absence of chemical substance (yeast gene YGR244C): 1.9 | The level of expressed mRNA in the presence of chemical substance/The level of expressed mRNA in the absence of chemical substance (yeast gene YGR254W): 1.7 | The level of expressed mRNA in the presence of chemical substance/The level of expressed mRNA in the absence of chemical substance (yeast gene YHR179W): 2.2 | The level of expressed mRNA in the presence of chemical substance/The level of expressed mRNA in the absence of chemical substance (yeast gene YIL160C): 1.0 | The level of expressed mRNA in the presence of chemical substance/The level of expressed mRNA in the absence of chemical substance (yeast gene YIR031C, cells incubated two hours with the chemical substance): 0.8 | The level of expressed mRNA in the presence of chemical substance/The level of expressed mRNA in the absence of chemical substance (yeast gene YJL052W): 2.4 | The level of expressed mRNA in the presence of chemical substance/The level of expressed mRNA in the absence of chemical substance (yeast gene YJL121C, cells incubated two hours with the chemical substance): 0.6 | The level of expressed mRNA in the presence of chemical substance/The level of expressed mRNA in the absence of chemical substance (yeast gene YJL166W, cells incubated two hours with the chemical substance): 0.7 | The level of expressed mRNA in the presence of chemical substance/The level of expressed mRNA in the absence of chemical substance (yeast gene YJL216C, cells incubated two hours with the chemical substance): 1.0 | The level of expressed mRNA in the presence of chemical substance/The level of expressed mRNA in the absence of chemical substance (yeast gene YJR009C): 1.5

Source: patent US8192962B2, “Processes for detecting toxic substances” (Daikin Industries, Ltd., priority 2001, dated 2012)
